“And” between values parts separate entries of the source, which are not always exact repeats. Equal entries are not always repeated.
What was measured:
[1] = tested on: Trypanosoma brucei brucei; assay: microbe, parasite or virus in culture; format: functional, organism-based, STIB 795
Description: DNDI: Inhibition of Human African Trypanosomiasis (HAT), STIB 795, in vitro

[2] = DNDI: Cytotoxicity against human MRC-5 lung fibroblast cells.; conditions: IC50

| SMILES | IC50 ([1]; Trypanosoma brucei, STIB 795) [µM] | IC50 [2] [µM] | IC50 [1] |
| --- | --- | --- | --- |
| N=c1n(Cc2ccccc2)c2ccccc2n1CC(O)COc1ccccc1 (configuration not stated) | 7.55 | > 41.7 | – |
| CCN(CC)c1ccc(/C=C/C2=[N+](C)c3ccc(C(=O)OC)cc3C2(C)C)cc1 | 0.056 | 3.86 | – |
| CCN1CCN(C(c2cccnc2)c2cc(Cl)c3cccnc3c2O)CC1 (configuration not stated) | 5.83 | > 41.7 | – |
| CCCCC(=O)NC(c1ccc(N(C)C)cc1)c1ccc2cccnc2c1O (configuration not stated) | 5.84 | > 20.8 | – |
| CC(C)C1CC(CCNCc2ccc(N(C)C)cc2)(c2ccccc2)CCO1 (configuration not stated) | 5.22 | > 41.7 | – |
| C=CCN1C(=O)C(O)(CC(=O)c2ccco2)c2cc(Br)ccc21 (configuration not stated) | 0.483 | > 41.7 | – |
| COC(=O)c1ccc(C2N=C(c3cccs3)CC(c3ccccc3O)N2)cc1 (configuration not stated) | 5.51 | > 41.7 | – |
| CCCOc1cccc(C(=O)Nc2cccc(-c3nc4ncccc4o3)c2C)c1 | 0.662 | > 4.17 | – |
| CCN(CC)CCNc1cc(C)nc2c1C(=O)C(=O)C=C2N1CCCCC1 | 4.07 | 6.25 | – |
| CC(C)(C)C(=O)N1N=C(c2ccc(NS(C)(=O)=O)cc2)CC1c1ccco1 (configuration not stated) | 5.6 | > 20.8 | – |
| CC(CON1C(N)=NC(N)=NC1(C)C)Cc1cccc(Br)c1 (configuration not stated) | ≤ 3.67 | > 4.17 | – |
| CN(CCCNC(=O)c1n[nH]c2c1COc1ccccc1-2)C1CCCCC1 | 5.06 | > 20.8 | – |
| COc1ccc(C2=Nn3c([n+](C)c4cc(C)c(C)cc43)SC2)cc1OC | 5.33 | > 20.8 | – |
| Brc1ccc(-c2nc(N3CCNCC3)c3ccccc3n2)cc1 | 2.83 | > 10.4 | – |
| Cc1cc(C)c(OCCCCCCN2CCNCC2)c(Br)c1 | 1.02 | > 20.8 | – |
| CCOC(=O)c1c(CN2CCOCC2)oc2c1C(=O)C(=O)c1ccccc1-2 | 0.846 | > 20.8 | – |
| CCCCN1/C(=C/c2cc[n+](CC)c3ccccc23)C=Cc2cc(C)ccc21 | 0.831 | > 10.4 | – |
| CCCC[n+]1c(/C=C2/C=CN(CC)c3ccc(C)cc32)ccc2ccccc21 | 0.362 | > 4.17 | – |
| O=C(O/N=C(/NCc1ccccc1)c1ccc(Cl)cc1)c1cccs1 | 0.47 | > 41.7 | – |
| CCOC(=O)N1CCN(C2=C(NC(C)=O)C(=O)c3ccccc3C2=O)CC1 | 5.36 | > 41.7 | – |
| COc1cc(C(=O)Nc2nc(-c3ccccn3)cs2)cc(OC)c1OC | 4.6 | > 41.7 | – |
| CCc1c(C)nc(-n2nc(C)cc2NC(=O)c2ccccc2Cl)[nH]c1=O | 2.88 | > 20.8 | – |

| SMILES | IC50 ([1]; Trypanosoma brucei, STIB 795) [µM] | IC50 [2] [µM] | IC50 [1] |
| --- | --- | --- | --- |
| O=C1CC(Sc2nc(-c3ccco3)cc(C(F)(F)F)n2)C2COC1O2 (configuration not stated) | – | > 20.8 | 12 µM and 5.11 µM |
| CC(Cc1ccco1)NC(=O)c1cccc(NC(=O)C2=CSCCO2)c1 (configuration not stated) | 5.79 | > 41.7 | – |
| Cc1cc(C2=CC(C)(C)NC(C)(C)C2)sc1C1=CC(C)(C)NC(C)(C)C1 | 4.82 | > 41.7 | – |
| CC(C)C1N=C(c2ccc3c(c2)OCO3)CC(c2cc(Cl)ccc2O)N1 (configuration not stated) | 5.58 | > 41.7 | – |
| CCOc1ccc2nc3cc(NCc4ccccc4OC)ccc3c(N)c2c1 | 4.58 | > 20.8 | – |
| COC(=O)c1ccc2c(c1)C(C)(C)C(/C=C/c1c(C)[nH]c3ccccc13)=[N+]2C | 2.97 | > 4.17 | – |
| CC(C)n1c(=N)n(CCOc2ccc(Br)cc2)c2ccccc21 | 2.02 | > 4.17 | – |
| CCC1=C(C)c2cc3nc(C(=O)OCc4ccccc4)c(C)c-3c(C)n2C1C (configuration not stated) | 5.66 | > 41.7 | – |
| CC1(C)CC2CC(C)(CN2C(=O)COCc2cc(-c3cccs3)on2)C1 (configuration not stated) | 5.44 | > 41.7 | – |
| Cc1ccccc1OCCn1c(=N)n(Cc2ccccc2F)c2ccccc21 | 4.95 | > 20.8 | – |
| CCOC(=O)c1ccc(CCCCCON2C(N)=NC(N)=NC2(C)C)cc1 | 1.05 | > 1.04 | – |
| CCOc1cc2c(cc1OCC)C(c1ccc(Br)cc1)NCC2 (configuration not stated) | 5.55 | > 41.7 | – |
| O=C(CS(=O)(=O)c1ccc(F)cc1)Nc1nc(-c2ccccn2)cs1 | 0.791 | > 10.4 | – |
| N=c1n(CCOc2ccccc2)c2ccccc2n1Cc1ccc(Cl)cc1 | 6.63 | > 41.7 | – |
| Cc1ccc(-c2cc(C(F)F)nc(SC3CC(=O)C4OCC3O4)n2)cc1 (configuration not stated) | – | > 41.7 | > 10.4 µM and 5.2 µM |
| CC(C)Cc1nc(NCCC2CCCN2C)c2cnn(-c3ccccc3)c2n1 (configuration not stated) | 2.66 | > 20.8 | – |
| COc1ccc(-c2cs/c(=N\CC3CCNCC3)n2-c2ccccc2)cc1 | 5.74 | > 20.8 | – |
| CN(C)c1ccc(/C=C/c2cc(-c3ccccc3)n(-c3ccccc3)[n+]2C)cc1 | 0.68 | > 20.8 | – |
| COc1ccccc1C(CCNC(C)c1ccccc1)C1CCOC(C)(C)C1 (configuration not stated) | 4.74 | > 41.7 | – |
| C=CCN(CC=C)Cc1c(O)ccc2c(=O)c(-c3ccccc3Cl)coc12 | 5.19 | > 41.7 | 5.3 µM |
| O=C(N/N=C/c1cc(I)ccc1O)c1ccccc1O | 44.4 | > 4.17 | – |
